Assay results published in PMC2375353, “Effective treatment of experimental U-87MG human glioblastoma in nude mice with a targeted cytotoxic bombesin analogue, AN-215” (British Journal of Cancer, 2002).
Where “and” joins values, the source holds several entries; their conditions need not be identical. Identical values can stand only once.

Key:
[1] = tested on: U-87MG human glioblastoma xenografted into nude mice; test: Experiment 1: growth of s.c. U-87MG xenografts in nude mice; format: in vivo, human tumour in male athymic nude mice; conditions: for Final tumour volume / Final tumour volume, % inhibition / Tumour weight, % inhibition / Tumour doubling time: 150 nmol kg^-1 i.v. days 1, 8, 15, 22; for Final tumour volume / Final tumour volume, % inhibition / Tumour weight, % inhibition: day 29; for Final tumour volume / Tumour doubling time: mean±s.e.; for Final tumour volume: control 3201.5±375.7; for Final tumour volume, % inhibition / Tumour weight, % inhibition: vs control; for Antitumour effect / Tumour doubling time: experiment 1; for Antitumour effect: 150 nmol kg^-1 i.v.; for Tumour doubling time: day 1 to 29, control 4.5±0.2
Experimental: Human glioblastoma cell line U-87MG was obtained from American Type Culture Collection (Manassas, VA, USA) and cultured as described ([Pinski et al, 1994]). Male athymic (Ncr nu/nu) nude mice, approximately 6-weeks-old on arrival, were obtained from the National Cancer Institute (Frederick Cancer Research and Development Center, Frederick, MD, USA), and housed in laminar air-flow cabinets under pathogen-free conditions with a 12 h light/12 h dark schedule, and fed autoclaved standard chow and water ad libitum. Xenografts were initiated by s.c. injection of 12×10^6 U-87MG cells into the right flanks of five male nude mice. Tumours resulting after 2 weeks were aseptically dissected, mechanically minced, and 3-mm^3 pieces of tumour tissue were transplanted s.c. with a trocar needle. The take rate was 100%. All experiments were performed in accordance with institutional ethical guidelines of animal care and were essentially in agreement with [UKCCCR guidelines (1998)] for the welfare of animals in experimental neoplasia.
(§1) Experiment 1 was started when tumours had grown to approximately 40 mm^3 in volume. Animals were randomly divided into three treatment groups: group 1(10 mice), control, which received vehicle solution; group 2 (10 mice), injected with cytotoxic radical AN-201; group 3 (11 mice), given cytotoxic BN analogue AN-215. Cytotoxic compounds were injected through the jugular vein at a dose of 150 nmol kg^−1 of body weight (BW) on days 1, 8, 15 and 22. Tumour volume (length×width×height×0.5236) and BW were measured twice a week. The experiment was terminated on day 29. […] Tumours were excised and weighed. Tumour specimens were snap-frozen and stored at −70°C until extraction of RNA for reverse transcription-polymerase chain reaction (RT–PCR). Tumour volume doubling time was calculated between day 1 and 29 using the formula: […]
as described by [Smolev et al (1977)].
Data are expressed as mean±s.e. Differences between mean values were evaluated by two-tailed Student's t-test, P<0.05 being considered significant.

[2] = General toxicity (mortality, body weight); format: in vivo, nude mice; conditions: for Final BW: mean±s.e.
Experimental: as §1
Experiment 2 was started when U-87MG tumours had grown to 70–84 mm^3 in volume. The animals were divided into the following treatment groups: group 1 (10 mice), control, vehicle solution; group 2 (10 mice), analogue AN-215; group 3 (five mice), unconjugated mixture of the cytotoxic radical AN-201 and BN antagonist RC-3095. All compounds were injected i.v. at 150 nmol kg^−1 of BW on days 1, 10, and 17. In addition, one group of tumour-bearing mice received an i.v. injection of 200 μg of BN antagonist RC-3095 15 min before each administration of AN-215 at a dose of 150 nmol kg^−1 of BW on days 1, 10 and 17 as in the case of group 2. The experiment was terminated on day 20 as described above.
General toxicity was evaluated on the basis of mortality rate and changes in BW. Toxicity to BN receptor-positive organs was assessed by measuring gastrin release in response to GRP stimulation ([Plonowski et al, 2000]). At the end of experiment 1, blood samples were collected 5 min after i.v. injection of 2 μg of GRP(14-27) dissolved in 100 μl of 5% mannitol. Serum gastrin concentrations were measured by double-antibody radioimmunoassay with a kit provided by ICN Pharmaceuticals Diagnostic Division (Orangeburg, NY, USA). The interassay variation was 10.6%, and the intraassay variation was 6%.

[3] = tested on: BN receptor-positive organs; test: GRP-stimulated serum gastrin release; format: in vivo, nude mice; conditions: for Effect on GRP-stimulated gastrin release: experiment 1, after i.v. stimulation with GRP(14-27); for GRP(14-27)-evoked serum gastrin level: experiment 1 end, 5 min after i.v. 2 μg GRP(14-27), radioimmunoassay, control 223.0±17.9, mean±s.e.
Experimental: General toxicity was evaluated on the basis of mortality rate and changes in BW. Toxicity to BN receptor-positive organs was assessed by measuring gastrin release in response to GRP stimulation ([Plonowski et al, 2000]). […] Serum gastrin concentrations were measured by double-antibody radioimmunoassay with a kit provided by ICN Pharmaceuticals Diagnostic Division (Orangeburg, NY, USA). The interassay variation was 10.6%, and the intraassay variation was 6%.

[4] = tested on: U-87MG human glioblastomas in nude mice; test: Histology of U-87MG tumours (experiment 1); format: in vivo, human tumour in nude mice; conditions: for Extent of necrosis vs control / % area of necrosis / Ratio of apoptotic to mitotic indices / Apoptotic index / Mitotic index: experiment 1 tumours; for % area of necrosis: 150 nmol kg^-1 i.v. x4, control 60.0±5.8; for % area of necrosis / Ratio of apoptotic to mitotic indices / Apoptotic index / Mitotic index / Number of AgNORs per cell: mean±s.e.; for Ratio of apoptotic to mitotic indices: control 0.38±0.06; for Apoptotic index / Mitotic index: per 1000 cells; for Apoptotic index: control 5.9±0.7; for Mitotic index: control 16.6±1.4; for Number of AgNORs per cell: silver staining, 50 cells per tumour, control 4.93±0.18
Text: Samples of tumour tissues were fixed in 10% buffered formalin. The specimens were embedded in Paraplast (Oxford Labware, St. Louis, MO, USA). Six μm thick sections were cut and stained with haematoxylin-eosin. Mitotic and apoptotic cells were counted in nine standard high power microscopic fields containing an average of 330 cells, and their numbers per 1000 cells were accepted as the mitotic and apoptotic indices, respectively. To eliminate errors caused by variances in thickness of slides and cellularity of areas investigated, the ratio of apoptotic to mitotic indices was calculated in each tumour. For the determination of the extent of necrosis in tumours, the crossing points of a microscope ocular net that coincided with necrosis in the slide made at the largest cross-section of each tumour were counted. The ratio of these points to the number of all points above the tumour represented the percentage area of necrosis. […] NORs are parts of DNA closely associated with nucleoli and encode for ribosomal RNA. They are also associated with argyrophylic proteins and thus can be visualised by silver staining. The amount of AgNORs is a good indicator of cell proliferation ([van Diest et al, 1998]). The silver-stained black dots in 50 cells of each tumour were counted and the AgNOR number per cell was calculated. The data were evaluated by one way analysis of variance (ANOVA) and the treated groups compared to the control by Dunnett's test.

[5] = cited from earlier work; for BW change: accompanying WBC decrease, nude mice bearing PC-3; for Reduction in WBC count: after the final injection, nude mice bearing PC-3 human prostate cancers
Experimental: In our previous study ([Plonowski et al, 2000]) we reported that after the final injection of AN-215, AN-201 or the mixture of AN-201 and […] there was an approximate 50% reduction in WBC count in nude mice bearing PC-3 human prostate cancers. […] In the present study no measurements of WBC were carried out. Instead, the assessment of toxicity was based on changes in BW and mortality which indicated, in both experiments, that targeted cytotoxic BN analogue AN-215 is not toxic (Table 2). In experiment 1, two of 10 animals (20%) ...

[6] = experiment 1, 150 nmol kg^-1 i.v. days 1, 8, 15, 22
[7] = experiment 1, 150 nmol kg^-1 i.v. days 1, 8, 15, 22, control 0/10
[8] = experiment 1, day 29, control 29.3±1.0

Molecule | Final tumour volume [1] | Final tumour volume, % inhibition [1] | Tumour weight, % inhibition [1] | Antitumour effect [1] | Tumour doubling time [1] | Mortality, % of animals [2, 6] | Mortality (number of dead animals/number of total) [2, 7] | Final BW [2, 8] | Effect on GRP-stimulated gastrin release [3] | GRP(14-27)-evoked serum gastrin level [3] | Extent of necrosis vs control [4] | % area of necrosis [4] | Ratio of apoptotic to mitotic indices [4] | Apoptotic index [4] | Mitotic index [4] | Number of AgNORs per cell [4] | BW change ([5]; ref Plonowski et al, 2000) | Reduction in WBC count ([5]; ref Plonowski et al, 2000) | other results
COc1cccc2c1C(=O)c1c(O)c3c(c(O)c1C2=O)C[C@@](O)(C(=O)CO)C[C@@H]3O[C@H]1C[C@H](N2C=CCC2)[C@H](O)[C@H](C)O1 [AN-201, 2-pyrrolino-doxorubicin] | 2353.7±506.7 mm^3 | 26% | 13.2% | ineffective | 5.9 ± 1.4 days | 20% | 2/10 | 25.5 ± 0.8 g | Neither AN-215 nor AN-201 affected GRP-stimulated gastrin release | 251.5 ± 22.1 pg/mL | only a slight and not significant change in necrosis | 69.6±7.0% | 0.36±0.04 | 5.3±0.6 | 15.2±1.5 | 4.31±0.09 | transient decrease in BW | ~50% | 
Gln-Trp-Ala-Val-Gly-His-Leu-ψ(CH2-NH)-Leu-NH2 [AN-215] | 971.5±227.9 mm^3 | 69.6% | 64.6% | strong tumour growth inhibition | 8.18±1.8 days and 8.2±1.8 days and 8.2±1.8^c days | 9% | 1/11 | 25.4 ± 0.6 g | Neither AN-215 nor AN-201 affected GRP-stimulated gastrin release | 257.9 ± 11.6 pg/mL | significantly larger than in the controls | 81.7±6.7 % | 0.85±0.25 | 6.2±0.8 | 10.9±2.2 | 4.16±0.12 | transient decrease in BW | ~50% | Toxicity by BW and mortality ([2]; both experiments, 150 nmol kg^-1 i.v.): not toxic; Final BW, % of control ([2]; experiment 1, day 29): 87%; Mortality (number of dead animals/number of total) ([2]; experiment 2, 150 nmol kg^-1 i.v. days 1, 10, 17, control 1/10): 0/10; Toxicity-related deaths ([2]; experiment 2, AN-215 150 nmol kg^-1 without pretreatment): no toxicity-related deaths; Mortality, % of animals, after RC-3095 pretreatment ([2]; experiment 2, RC-3095 200 μg i.v. about 15 min before AN-215): 11%; Final BW, % of control ([2]; experiment 2, day 20): 90%; Final BW ([2]; experiment 2, day 20, control 30.2±0.8): 27.3 ± 0.9 g; Damage to gastrointestinal cells ([3]; GRP-stimulated gastric secretion, this study and also ref Plonowski et al, 2000): no specific damage to the gastrointestinal cells; Tolerance with carboxylesterase inhibited ([5]; nude mice, ref Nagy et al, 2000, Plonowski et al): significantly higher tolerance; Efficacy with suppressed esterase activity ([5]; nude mice, ref Plonowski et al, 2000): highly efficacious
